target: T1, HPK1 (Homo sapiens, UniProt Q92918); experiment: HPK1 Cellular HiBiT Degradation Assay; assay type: cell-based; details: HiBiT-tagged HPK1 Jurkat cells, 24 hours, 10 uM to 0.1 nM; Dmax = 100 minus lowest % HPK1 remaining vs DMSO vehicle
T1 construct: A HiBiT tag was introduced by CRISPR on the N terminus of HPK1 in Jurkat cells; host or cells: Jurkat (ATCC TIB-152), monoclonal CRISPR HiBiT knock-in line
Method: HiBiT HPK1 Jurkat cell lines were used to evaluate the total protein levels of HPK1 in a robust human cellular high throughput format. The level of HPK1 remaining following treatment with HPK1 CTMs is reported as Dmax (maximum degradation) achieved at 24 hours when compared to vehicle treated controls. […] These decreases were not a result of cytotoxicity measured by a parallel viability assessment (CTG). See also Table 1.
A HiBiT tag was introduced by CRISPR on the N terminus of HPK1 in Jurkat cells (ATCC® TIB-152) to allow quantitation of HPK1 protein levels in a monoclonal human cell line. Cells were plated at 1×10^6 cells/mL, 30 uL/well (3×10^4 cells/well) in complete RPMI 1640 (10% heat inactivated FBS, 1% L-glutamine) in 384-well assay plates (Corning, cat. no. 3570). HPK1 chimeric targeting molecules (CTMs) were added in an 11-point dilution series (3.16-fold) with a final assay concentration range of 10 uM to 0.1 nM. The parental Jurkat cell line, with no HiBiT insertion, was included in the assay as a background control. Cells treated with a DMSO vehicle control were used to determine the maximum signal defining 100% HPK1 in the cell. Cells were incubated for 24 hours at 37° C./5% CO2. Following incubation, 30 uL of complete Nano-Glo HiBiT Lytic Detection Reagent (Promega cat. no. N3040) was added. Cells were incubated for 10 minutes at room temperature and luminescence was read on an EnVision plate reader (Perkin Elmer, 0.1 sec per well). Parallel plates were assessed for viability using Cell Titer Glo (Promega) and read on an EnVision plate reader to ensure results were not the effect of cytotoxicity. Percent HPK1 remaining per sample was calculated as follows: […]
% HPK1 remaining values were plotted as a function of compound concentration and curves were fit using the Prism (GraphPad) equation “log(inhibitor) vs response−Variable slope (four parameters)”. Dmax values were calculated by identifying the lowest % remaining and subtracting from 100. Dmax values are provided in Table 1, wherein A>65%, 45%≤B≤65% and C<45%.

T1 sequence (Q92918 whole entry): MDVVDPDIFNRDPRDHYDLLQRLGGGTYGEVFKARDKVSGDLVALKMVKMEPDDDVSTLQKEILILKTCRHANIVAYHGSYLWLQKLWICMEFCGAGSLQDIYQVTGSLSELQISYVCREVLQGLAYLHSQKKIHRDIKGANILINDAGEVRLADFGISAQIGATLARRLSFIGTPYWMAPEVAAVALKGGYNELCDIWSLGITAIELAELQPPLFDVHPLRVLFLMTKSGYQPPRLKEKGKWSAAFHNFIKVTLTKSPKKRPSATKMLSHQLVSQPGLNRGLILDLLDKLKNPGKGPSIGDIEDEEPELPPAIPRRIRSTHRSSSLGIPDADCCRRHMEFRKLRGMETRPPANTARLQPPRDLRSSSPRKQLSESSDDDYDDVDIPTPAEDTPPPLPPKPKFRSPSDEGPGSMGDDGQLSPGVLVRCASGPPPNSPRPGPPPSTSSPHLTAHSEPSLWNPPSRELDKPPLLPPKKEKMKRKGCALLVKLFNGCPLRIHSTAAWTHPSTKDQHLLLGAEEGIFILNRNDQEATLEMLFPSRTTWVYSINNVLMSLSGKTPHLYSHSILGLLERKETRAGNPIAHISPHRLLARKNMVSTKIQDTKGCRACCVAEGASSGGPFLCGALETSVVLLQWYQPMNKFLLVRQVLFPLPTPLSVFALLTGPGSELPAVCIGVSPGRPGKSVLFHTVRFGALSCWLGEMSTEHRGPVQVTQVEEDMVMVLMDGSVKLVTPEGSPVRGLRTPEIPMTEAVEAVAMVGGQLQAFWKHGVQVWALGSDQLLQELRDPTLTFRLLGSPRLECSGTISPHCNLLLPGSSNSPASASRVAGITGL

| Dmax | Structure (SMILES) | Cellular HPK1 HiBiT: Dmax (%) |
| --- | --- | --- |
| < 45% | Cc1cc(F)c(Nc2nc(-c3ccc4c(c3)N([C@H]3C[C@@H](N5CCCCC5)C3)C(=O)C43CCN(C(=O)CN4CCN(c5ccc6c(c5)C(=O)N(C5CCC(=O)NC5=O)C6=O)CC4)CC3)cc3ncn(C(C)C)c23)cc1C(=O)NC(C)C (mixture of isomers) [Example 23, 5-[(6-{1′-[2-(4-{2-[(3RS)-2,6-dioxopiperidin-3-yl]-1,3-dioxo-2,3-dihydro-1H-isoindol-5-yl}piperazin-1-yl)acetyl]-2-oxo-1-[(1s,3s)-3-(piperidin-1-yl)cyclobutyl]-1,2-dihydrospiro[indole-3,4′-piperidin]-6-yl}-3-(propan-2-yl)-3H-imidazo[4,5-c]pyridin-4-yl)amino]-4-fluoro-2-methyl-N-(propan-2-yl)benzamide] |  |
| 45 to 65% | Cc1cc(F)c(Nc2nc(-c3ccc4c(c3)N([C@H]3C[C@@H](N5CCCCC5)C3)C(=O)C43CCN(C(=O)C4CCN(C(=O)C5CCN(c6cccc7c6C(=O)N(C6CCC(=O)NC6=O)C7=O)CC5)C4)CC3)cc3ncn(C(C)C)c23)cc1C(=O)NC(C)C (mixture of isomers) [Example 25, 5-[(6-{1′-[1-(1-{2-[(3RS)-2,6-dioxopiperidin-3-yl]-1,3-dioxo-2,3-dihydro-1H-isoindol-4-yl}piperidine-4-carbonyl)pyrrolidine-3-carbonyl]-2-oxo-1-[(1s,3s)-3-(piperidin-1-yl)cyclobutyl]-1,2-dihydrospiro[indole-3,4′-piperidin]-6-yl}-3-(propan-2-yl)-3H-imidazo[4,5-c]pyridin-4-yl)amino]-4-fluoro-2-methyl-N-(propan-2-yl)benzamide] |  |
| < 45% | Cc1cc(F)c(Nc2nc(-c3ccc4c(c3)N([C@H]3C[C@@H](N5CCCCC5)C3)C(=O)C43CCN(C(=O)CCCCCCCCCNc4cccc5c4C(=O)N(C4CCC(=O)NC4=O)C5=O)CC3)cc3ncn(C(C)C)c23)cc1C(=O)NC(C)C (some centres unmarked) [Example 1, 5-((6-(1′-(10-((2-(2,6-dioxopiperidin-3-yl)-1,3-dioxoisoindolin-4-yl)amino)decanoyl)-2-oxo-1-((1s,3s)-3-(piperidin-1-yl)cyclobutyl)spiro[indoline-3,4′-piperidin]-6-yl)-3-isopropyl-3H-imidazo[4,5-c]pyridin-4-yl)amino)-4-fluoro-N-isopropyl-2-methylbenzamide] |  |
| 45 to 65% | Cc1cc(F)c(Nc2nc(-c3ccc4c(c3)N([C@H]3C[C@@H](N5CCCCC5)C3)C(=O)C43CCN(C(=O)CCOCCOCCOCCOCCNc4cccc5c4C(=O)N(C4CCC(=O)NC4=O)C5=O)CC3)cc3ncn(C(C)C)c23)cc1C(=O)NC(C)C (some centres unmarked) [Example 2, 5-((6-(1′-(1-((2-(2,6-dioxopiperidin-3-yl)-1,3-dioxoisoindolin-4-yl)amino)-3,6,9,12-tetraoxapentadecan-15-oyl)-2-oxo-1-((1s,3s)-3-(piperidin-1-yl)cyclobutyl)spiro[indoline-3,4′-piperidin]-6-yl)-3-isopropyl-3H-imidazo[4,5-c]pyridin-4-yl)amino)-4-fluoro-N-isopropyl-2-methylbenzamide] |  |
| < 45% | Cc1cc(F)c(Nc2nc(-c3ccc4c(c3)N([C@H]3C[C@@H](N5CCCCC5)C3)C(=O)C43CCN(C(=O)CCCCCCCNc4ccc5c(c4)C(=O)N(C4CCC(=O)NC4=O)C5=O)CC3)cc3ncn(C(C)C)c23)cc1C(=O)NC(C)C (some centres unmarked) [Example 3, 5-((6-(1′-(8-((2-(2,6-dioxopiperidin-3-yl)-1,3-dioxoisoindolin-5-yl)amino)octanoyl)-2-oxo-1-((1s,3s)-3-(piperidin-1-yl)cyclobutyl)spiro[indoline-3,4′-piperidin]-6-yl)-3-isopropyl-3H-imidazo[4,5-c]pyridin-4-yl)amino)-4-fluoro-N-isopropyl-2-methylbenzamide] |  |
| < 45% | Cc1cc(F)c(Nc2nc(-c3ccc4c(c3)N(C3CC(N5CCCCC5)C3)C(=O)C43CCN(C(=O)CCCCCCCCCNc4ccc5c(c4)C(=O)N(C4CCC(=O)NC4=O)C5=O)CC3)cc3ncn(C(C)C)c23)cc1C(=O)NC(C)C (centres unmarked) [Example 4, 5-((6-(1′-(10-((2-(2,6-dioxopiperidin-3-yl)-1,3-dioxoisoindolin-5-yl)amino)decanoyl)-2-oxo-1-((1s,3s)-3-(piperidin-1-yl)cyclobutyl)spiro[indoline-3,4′-piperidin]-6-yl)-3-isopropyl-3H-imidazo[4,5-c]pyridin-4-yl)amino)-4-fluoro-N-isopropyl-2-methylbenzamide] |  |
| < 45% | Cc1cc(F)c(Nc2nc(-c3ccc4c(c3)N(C3CC(N5CCCCC5)C3)C(=O)C43CCN(C(=O)CCOCCOCCOCCNc4ccc5c(c4)C(=O)N(C4CCC(=O)NC4=O)C5=O)CC3)cc3ncn(C(C)C)c23)cc1C(=O)NC(C)C (centres unmarked) [Example 5, 5-((6-(1′-(3-(2-(2-(2-((2-(2,6-dioxopiperidin-3-yl)-1,3-dioxoisoindolin-5-yl)amino)ethoxy)ethoxy)ethoxy)propanoyl)-2-oxo-1-((1s,3s)-3-(piperidin-1-yl)cyclobutyl)spiro[indoline-3,4′-piperidin]-6-yl)-3-isopropyl-3H-imidazo[4,5-c]pyridin-4-yl)amino)-4-fluoro-N-isopropyl-2-methylbenzamide] |  |
| < 45% | Cc1cc(F)c(Nc2nc(-c3ccc4c(c3)N([C@H]3C[C@@H](N5CCCCC5)C3)C(=O)C43CCN(C(=O)CCCCCCCCCOc4cc(-c5scnc5C)ccc4CNC(=O)[C@@H]4C[C@@H](O)CN4C(=O)[C@@H](NC(=O)C4(F)CC4)C(C)(C)C)CC3)cc3ncn(C(C)C)c23)cc1C(=O)NC(C)C [Example 6, (2S,4R)—N-(2-((10-(6-(4-((2-fluoro-5-(isopropylcarbamoyl)-4-methylphenyl)amino)-3-isopropyl-3H-imidazo[4,5-c]pyridin-6-yl)-2-oxo-1-((1s,3s)-3-(piperidin-1-yl)cyclobutyl)spiro[indoline-3,4′-piperidin]-1′-yl)-10-oxodecyl)oxy)-4-(4-methylthiazol-5-yl)benzyl)-1-((S)-2-(1-fluorocyclopropane-1-carboxamido)-3,3-dimethylbutanoyl)-4-hydroxypyrrolidine-2-carboxamide] |  |
| > 65% | Cc1cc(F)c(Nc2nc(-c3ccc4c(c3)N([C@H]3C[C@@H](N5CCCCC5)C3)C(=O)C43CCN(C(=O)CCCCCC(=O)N[C@H](C(=O)N4C[C@H](O)C[C@H]4C(=O)N[C@@H](C)c4ccc(-c5scnc5C)cc4)C(C)(C)C)CC3)cc3ncn(C(C)C)c23)cc1C(=O)NC(C)C [Example 7, (2S,4R)-1-((S)-2-(7-(6-(4-((2-fluoro-5-(isopropylcarbamoyl)-4-methylphenyl)amino)-3-isopropyl-3H-imidazo[4,5-c]pyridin-6-yl)-2-oxo-1-((1s,3s)-3-(piperidin-1-yl)cyclobutyl)spiro[indoline-3,4′-piperidin]-1′-yl)-7-oxoheptanamido)-3,3-dimethylbutanoyl)-4-hydroxy-N—((S)-1-(4-(4-methylthiazol-5-yl)phenyl)ethyl)pyrrolidine-2-carboxamide] |  |
|  | Cc1cc(F)c(Nc2nc(-c3ccc4c(c3)N(C3CC(N5CCCCC5)C3)C(=O)C43CCN(C(=O)CCCCCCCCCC(=O)N[C@H](C(=O)N4C[C@H](O)C[C@H]4C(=O)N[C@@H](C)c4ccc(-c5scnc5C)cc4)C(C)(C)C)CC3)cc3ncn(C(C)C)c23)cc1C(=O)NC(C)C (stereo partly drawn) [Example 8, (2S,4R)-1-((S)-2-(11-(6-(4-((2-fluoro-5-(isopropylcarbamoyl)-4-methylphenyl)amino)-3-isopropyl-3H-imidazo[4,5-c]pyridin-6-yl)-2-oxo-1-((1s,3s)-3-(piperidin-1-yl)cyclobutyl)spiro[indoline-3,4′-piperidin]-1′-yl)-11-oxoundecanamido)-3,3-dimethylbutanoyl)-4-hydroxy-N—((S)-1-(4-(4-methylthiazol-5-yl)phenyl)ethyl)pyrrolidine-2-carboxamide] | A (A>65%) |
| < 45% | Cc1cc(F)c(Nc2nc(-c3ccc4c(c3)N([C@H]3C[C@@H](N5CCCCC5)C3)C(=O)C43CCN(C(=O)CCOCCOCCOCCOc4cc(-c5scnc5C)ccc4CNC(=O)[C@H]4C[C@H](O)CN4C(=O)[C@H](NC(=O)C4(F)CC4)C(C)(C)C)CC3)cc3ncn(C(C)C)c23)cc1C(=O)NC(C)C [Example 9, (2S,4R)—N-(2-(2-(2-(2-(3-(6-(4-((2-fluoro-5-(isopropylcarbamoyl)-4-methylphenyl)amino)-3-isopropyl-3H-imidazo[4,5-c]pyridin-6-yl)-2-oxo-1-((1s,3s)-3-(piperidin-1-yl)cyclobutyl)spiro[indoline-3,4′-piperidin]-1′-yl)-3-oxopropoxy)ethoxy)ethoxy)ethoxy)-4-(4-methylthiazol-5-yl)benzyl)-1-((S)-2-(1-Fluorocyclopropane-1-carboxamido)-3,3-dimethylbutanoyl)-4-hydroxypyrrolidine-2-carboxamide] |  |
